# Columns and labels:
# [1] = test system: CCD 841 CoN cells; test: DNA damage detection, comet assay (SCGE); type: cell-based, human; conditions: 40 μg/mL, 48 h
# Description: The cells were grown at 6-well plates at the established density and standard culture conditions and exposed to the non-heated and heated ST, ST-OA, and ST-LA for 48 h. The non-treated cells and cells treated with H2O2 (100 μM, 30 min) to induce oxidative DNA damage constituted the negative and positive controls, respectively. After treatment, cells were analyzed for DNA damage using a single cell gel electrophoresis (SCGE) called comet assay, described in detail previously. Briefly, harvested cells suspended in low melting point agarose were put onto microscope slides pre-coated with normal melting point agarose and subjected sequentially to lysis, alkaline electrophoresis (pH > 13), and neutralization ([…]). The cells were stained with SYBRGold (Molecular Probes), viewed under a fluorescence microscope (Axiovert 200, Zeiss, Carl Zeiss, Gottingen, Germany), and analyzed using CometScore™ software (TriTek Corp., Sumerduck, VA, USA). At least 100 cells were analyzed on a microscope slide; 300 cells were considered for DNA damage detection in one sample. Data were expressed as the mean percentage of DNA content in the comet tail. […] Based on the comets' categorization, the total comet score (TCS) was calculated according to the formula: TCS = 0(n) + 1(n) + 2(n) + 3(n) + 4(n), where “n” is the number of cells in each comet class (0–4)[45].
# [2] = test system: CCD 841 CoN cells; set-up: method as in PMID 31883991; conditions: colon mucosa CCD 841 CoN cells, MTT test; cited from earlier work
# [3] = test system: intracellular ROS in CCD 841 CoN cells; test: Intracellular ROS measurement (DCFH-DA, flow cytometry); type: cell-based, human; conditions: up to 40 μg/mL, 24 h
# Description: CCD 841 CoN cells were grown in 6-well plates at an initial cell density of 2 × 10^4 cells/cm^2 for 24 h under standard culture conditions. The cell cultures were treated for 24 h with the analyzed compounds at a 40 μg/mL concentration. After treatment, the cells were harvested by trypsinization, washed with Hank's Balanced Salt Solution, and incubated with 10 μM 2′,7′-Dichlorodihydrofluorescein diacetate (DCFH-DA) (Life Technologies, Carlsbad, CA, USA) at 37 °C for 30 min. Intracellular DCF fluorescence (λex/em = 488/530 nm) was examined by flow cytometry (Amnis™ FlowSight™ flow cytometer).
# [4] = test system: S. typhimurium TA100; conditions: 40 μg/mL, without metabolic activation
# Description: Potential mutagenicity or pro-mutagenicity of non-heated and heated ST, ST-LA, and ST-OA was determined using the bacterial reverse mutation assay (Ames test) with Salmonella enterica subsp. enterica ser. typhimurium tester strains TA98, TA100, and TA102, which were obtained from the Polish Collection of Microorganisms of the Institute of Immunology and Experimental Therapy of the Polish Academy of Sciences in Wroclaw.
# Mutagenicity experiments were performed in the liquid pre-incubation assay, without and with metabolic activation by supplying Aroclor 1254-induced rat liver microsomal fraction (S9, Sigma-Aldrich) with NADP and cofactors for NADPH-supported oxidation, according to the procedure described by Mortelmans and Zeiger[39]. Briefly, reaction mixtures, consisting of 12-h bacterial culture, non-heated and heated compound (ST, ST-LA, ST-OA) at a concentration of 40 μg, 0.2 M phosphate buffer (pH 7.4), and alternatively S9 activating mixture, were pre-incubated at 37 °C for 20 min. […] The mutagen, 2-aminoanthracene (5 μg) (Sigma-Aldrich), was a positive control in pro-mutagenicity experiments. After pre-incubation, the reaction mixtures were added to the top agar supplemented with traces of histidine and biotin and poured onto the plates covered with minimum glucose agar. The cultures were incubated for 48 h at 37 °C, and the number of revertants (His+) colonies was counted manually.
# Compounds with MI ≥ 2 can be recognized as potentially mutagenic.
# [5] = test system: CCD 841 CoN cells; test: Cell cycle analysis by flow cytometry (propidium iodide); type: cell-based, human; conditions: 40 μg/mL, 24 h
# Description: CCD 841 CoN cells were grown in 6-well plates at an initial cell density of 2 × 10^4 cells/cm^2 for 24 h under standard culture conditions. The cells were treated for 24 h with the analyzed compounds at a concentration of 40 μg/mL; the high dose was applied because of the relatively low cytotoxic potential of ST-OA and ST-LA as determined in cytotoxicity studies. In addition, the cells were exposed to 0.05 μM camptothecin (Sigma-Aldrich) as a positive reference compound known to modulate cell cycle progression.
# After treatment, the cells were harvested by trypsinization, washed in PBS, and fixed in 70% ethanol. Then, the cells were stained with 50 μg/mL propidium iodide in the presence of 100 μg/mL RNase (Sigma-Aldrich). The sample preparation method and staining protocol were described previously. The cycle phase distribution was analyzed with an Amnis™ FlowSight™ flow cytometer (Luminex Corporation, TX, USA).
compound,measurement,setting,value
"CC[C@H](/C=C/[C@@H](C)[C@H]1CC[C@H]2[C@@H]3CC=C4C[C@@H](O)CC[C@]4(C)[C@H]3CC[C@]12C)C(C)C [ST, Stigmasterol]","comets category 2 (medium DNA damage, 25 to 45% DNA in tail), share of cell population",[1],3.5%
same,"total comet score (TCS), comet class distribution vs control",[1],no significant differences
same,"half-maximal effective concentration (EC50), 50% decrease in cell viability",[2],2.95 µg/mL
same,intracellular ROS production / oxidative reactivity,[3],did not induce enhanced intracellular ROS production
same,Mutagenic index TA100,[4],1.9
same,cell accumulation in G2/M phases,[5],significant cell accumulation in the G2/M phases
